What was measured:
[1] = biological target: dopaminergic receptors D2 (Homo sapiens, UniProt P14416); experiment: Radioligand binding assay, dopaminergic D2 receptors; details: binding assay, test compound 1×10^−6 M
Text: (§1) The specific ligand binding to the receptors is defined as the difference between the total binding and the non-specific binding determined in the presence of the excess of unlabelled ligand.
(§2) The results are expressed as a percent of control specific binding ((measured specific binding/control specific binding)×100) and as a percent inhibition of control specific binding (100−((measured specific binding/control specific binding)×100)) obtained in the presence of the test compounds. The specific ligand binding to the receptors is defined as the difference between the total binding and the nonspecific binding determined in the presence of an excess of unlabelled ligand. Scintillation counting was the method of detection of ligand binding. The IC50 values (concentration causing a half-maximal inhibition of control specific binding) were determined by non-linear regression analysis of the competition curves generated with mean replicate values using Hill equation curve fitting (Y=D+[(A−D)/(1+(C/C50)nH)], where Y=specific binding, D=minimum specific binding, A=maximum specific binding, C=compound concentration, C50=IC50, and nH=slope factor). This analysis was performed using a software developed at Cerep (Hill software) and validated by comparison with data generated by the commercial software SigmaPlot® 4.0 for Windows® (© 1997 by SPSS Inc.). The inhibition constants (Ki) were calculated using the Cheng Prusoff equation (Ki=IC50/(1+(L/KD)), where L=concentration of radioligand in the assay, and KD=affinity of the radioligand for the receptor). A scatchard plot was used to determine the Kd.
(§3) Experimental conditions for tests are given in Table 1, the results of tests for representative compounds are given in Tables 2a and 2b (receptors D2 and D3) and in Table 3 (receptors D4).

[2] = biological target: dopaminergic receptors D3 (Homo sapiens, UniProt P35462); experiment: Radioligand binding assay, dopaminergic D3 receptors; details: test compound 1×10^−6 M
dopaminergic receptors D3, sequence (P35462 whole entry): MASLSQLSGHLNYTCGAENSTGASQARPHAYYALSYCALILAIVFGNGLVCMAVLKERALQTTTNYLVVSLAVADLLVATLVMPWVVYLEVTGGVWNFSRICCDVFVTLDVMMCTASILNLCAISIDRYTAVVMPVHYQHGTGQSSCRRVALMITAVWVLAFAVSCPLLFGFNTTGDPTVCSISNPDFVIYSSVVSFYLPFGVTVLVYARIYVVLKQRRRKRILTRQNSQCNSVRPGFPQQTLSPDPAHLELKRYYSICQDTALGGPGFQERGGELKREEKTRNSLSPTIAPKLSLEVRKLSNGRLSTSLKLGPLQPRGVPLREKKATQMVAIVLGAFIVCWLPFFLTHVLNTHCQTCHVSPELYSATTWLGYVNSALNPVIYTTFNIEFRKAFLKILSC
Text: as §1, §2, §3

[3] = biological target: T1, 5-HT1A receptor (rat hippocampus) (Rattus norvegicus, UniProt P19327); experiment: Radioligand binding assay, serotoninergic 5-HT1A receptors; details: binding assay result in %, Table 5a;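 also: test compound at 1 µM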
T1 construct: hippocampus; from tissue; host or cells: rat hippocampus
T1 sequence (P19327 1-422): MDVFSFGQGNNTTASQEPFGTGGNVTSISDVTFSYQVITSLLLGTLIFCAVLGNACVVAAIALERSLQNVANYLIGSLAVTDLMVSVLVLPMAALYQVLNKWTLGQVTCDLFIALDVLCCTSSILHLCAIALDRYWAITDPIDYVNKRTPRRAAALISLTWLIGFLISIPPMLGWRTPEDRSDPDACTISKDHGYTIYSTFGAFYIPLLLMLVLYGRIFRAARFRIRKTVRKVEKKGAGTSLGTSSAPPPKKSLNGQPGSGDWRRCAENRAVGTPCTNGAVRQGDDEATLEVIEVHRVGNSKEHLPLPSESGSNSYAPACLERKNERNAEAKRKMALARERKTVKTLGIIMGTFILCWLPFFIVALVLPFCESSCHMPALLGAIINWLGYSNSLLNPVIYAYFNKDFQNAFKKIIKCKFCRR
Text: as §1, §2
(§4) Experimental conditions for tests are given in Table 4, and results of tests for representative compounds of the invention are given in Table 5a and 5b (receptors 5-HT1A, 5-HT2A, 5-HT6 and 5-HT7) and in Table 6 (receptors 5-HT2C).

5-HT2A receptor = biological target: T2, 5-HT2A receptor (Homo sapiens, UniProt P28223); experiment: Radioligand binding assay, serotoninergic 5-HT2A receptors; details: binding assay result in %, Table 5a
T2 construct: purchased PerkinElmer
T2 sequence (P28223 whole entry): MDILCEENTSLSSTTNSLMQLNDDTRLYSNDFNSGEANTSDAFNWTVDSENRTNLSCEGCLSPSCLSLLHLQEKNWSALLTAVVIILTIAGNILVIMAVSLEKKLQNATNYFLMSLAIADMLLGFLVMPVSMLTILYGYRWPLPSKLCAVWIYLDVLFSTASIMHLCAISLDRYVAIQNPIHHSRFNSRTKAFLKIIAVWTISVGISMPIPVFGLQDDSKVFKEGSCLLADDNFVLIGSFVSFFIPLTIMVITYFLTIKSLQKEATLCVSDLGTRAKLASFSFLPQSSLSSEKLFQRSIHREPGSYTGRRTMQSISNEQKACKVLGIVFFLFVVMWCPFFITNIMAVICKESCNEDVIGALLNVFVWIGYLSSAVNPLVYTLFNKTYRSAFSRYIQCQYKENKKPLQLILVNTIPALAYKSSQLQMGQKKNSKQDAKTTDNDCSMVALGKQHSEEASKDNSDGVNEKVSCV
Text: as §1, §2
5-HT2A: Bryan L. Roth. Assay Protocol Book. University of North Carolina At Chapel Hill. National Institute of Mental Health. Psychoactive Drug Screening Program. Available on-line at 31 Aug. 2008: http://pdsp.med.unc.edu/UNC-CH%20Protocol%20Book.pdf

5-HT6 receptor = biological target: T3, 5-HT6 receptor (Homo sapiens, UniProt P50406); experiment: Radioligand binding assay, serotoninergic 5-HT6 receptors; details: binding assay result in %, Table 5a;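 also: test compound at 1 µM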
T3 construct: purchased PerkinElmer
T3 sequence (P50406 whole entry): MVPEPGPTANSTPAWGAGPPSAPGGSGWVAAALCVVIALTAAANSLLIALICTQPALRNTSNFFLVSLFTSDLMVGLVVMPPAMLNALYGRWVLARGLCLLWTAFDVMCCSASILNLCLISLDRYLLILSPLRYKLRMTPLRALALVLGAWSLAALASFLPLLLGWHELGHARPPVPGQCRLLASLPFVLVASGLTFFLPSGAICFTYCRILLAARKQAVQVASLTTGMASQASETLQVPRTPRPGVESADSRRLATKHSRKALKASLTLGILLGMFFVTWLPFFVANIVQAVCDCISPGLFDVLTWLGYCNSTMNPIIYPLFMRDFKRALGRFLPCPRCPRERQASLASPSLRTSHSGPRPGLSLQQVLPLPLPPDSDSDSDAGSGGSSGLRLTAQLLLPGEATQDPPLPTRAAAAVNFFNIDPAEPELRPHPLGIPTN
Text: as §1, §2, §4
5-HT6: Bryan L. Roth. Assay Protocol Book. University of North Carolina At Chapel Hill. National Institute of Mental Health. Psychoactive Drug Screening Program. Available on-line at 31 Aug. 2008: http://pdsp.med.unc.edu/UNC-CH %20Protocol%20Book.pdf

5-HT7 receptor = biological target: T4, 5-HT7 receptor (Homo sapiens, UniProt P34969); experiment: Radioligand binding assay, serotoninergic 5-HT7 receptors; details: binding assay result in %, Table 5a;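 also: test compound at 1 µM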
T4 construct: purchased PerkinElmer
T4 sequence (P34969 whole entry): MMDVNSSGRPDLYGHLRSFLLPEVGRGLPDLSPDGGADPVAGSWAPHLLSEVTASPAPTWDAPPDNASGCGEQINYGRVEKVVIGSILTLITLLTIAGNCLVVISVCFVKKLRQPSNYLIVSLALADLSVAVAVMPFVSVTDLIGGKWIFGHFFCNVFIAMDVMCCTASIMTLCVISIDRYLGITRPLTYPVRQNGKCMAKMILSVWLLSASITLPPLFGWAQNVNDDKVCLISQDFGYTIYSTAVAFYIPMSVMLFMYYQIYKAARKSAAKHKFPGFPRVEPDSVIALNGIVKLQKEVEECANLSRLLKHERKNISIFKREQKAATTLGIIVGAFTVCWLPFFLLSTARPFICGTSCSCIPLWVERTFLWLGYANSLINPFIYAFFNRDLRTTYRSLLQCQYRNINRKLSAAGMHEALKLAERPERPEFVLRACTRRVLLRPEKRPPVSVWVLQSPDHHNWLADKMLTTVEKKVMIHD
Text: as §1, §2, §4
5-HT7: Bryan L. Roth. Assay Protocol Book. University of North Carolina At Chapel Hill. National Institute of Mental Health. Psychoactive Drug Screening Program. Available on-line at 31 Aug. 2008: http://pdsp.med.unc.edu/UNC-CH %20Protocol%20Book.pdf

[4] = biological target: T5, serotonin transporter (SERT) (Homo sapiens, UniProt P31645); experiment: Radioligand binding assay, serotonin transporter (SERT); details: binding assay, test compound 1×10^−6 M
T5 construct: expressed in transfected cells; host or cells: CHO cells
T5 sequence (P31645 whole entry): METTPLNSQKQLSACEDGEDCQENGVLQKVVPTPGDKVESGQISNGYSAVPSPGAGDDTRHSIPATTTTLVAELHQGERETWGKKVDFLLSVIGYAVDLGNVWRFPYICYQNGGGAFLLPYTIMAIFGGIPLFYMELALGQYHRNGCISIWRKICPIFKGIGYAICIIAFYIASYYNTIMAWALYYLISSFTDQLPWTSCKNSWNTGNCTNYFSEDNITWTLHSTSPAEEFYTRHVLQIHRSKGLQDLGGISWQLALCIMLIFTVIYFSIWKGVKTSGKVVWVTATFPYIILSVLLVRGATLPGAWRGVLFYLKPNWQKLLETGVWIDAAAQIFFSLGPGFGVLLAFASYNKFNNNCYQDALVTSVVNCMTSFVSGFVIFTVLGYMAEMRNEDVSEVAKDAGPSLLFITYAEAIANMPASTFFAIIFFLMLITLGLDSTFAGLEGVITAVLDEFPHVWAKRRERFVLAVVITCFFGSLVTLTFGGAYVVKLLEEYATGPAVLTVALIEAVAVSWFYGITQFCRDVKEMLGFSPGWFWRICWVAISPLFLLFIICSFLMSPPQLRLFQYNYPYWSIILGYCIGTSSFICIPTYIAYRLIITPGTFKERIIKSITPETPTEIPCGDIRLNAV
Text: as §1, §2
Experimental conditions for tests are given in Table 12, and results of tests for representative compounds are given in Tables 13a and 13b.

dopaminergic receptors D2, sequence (P14416 whole entry): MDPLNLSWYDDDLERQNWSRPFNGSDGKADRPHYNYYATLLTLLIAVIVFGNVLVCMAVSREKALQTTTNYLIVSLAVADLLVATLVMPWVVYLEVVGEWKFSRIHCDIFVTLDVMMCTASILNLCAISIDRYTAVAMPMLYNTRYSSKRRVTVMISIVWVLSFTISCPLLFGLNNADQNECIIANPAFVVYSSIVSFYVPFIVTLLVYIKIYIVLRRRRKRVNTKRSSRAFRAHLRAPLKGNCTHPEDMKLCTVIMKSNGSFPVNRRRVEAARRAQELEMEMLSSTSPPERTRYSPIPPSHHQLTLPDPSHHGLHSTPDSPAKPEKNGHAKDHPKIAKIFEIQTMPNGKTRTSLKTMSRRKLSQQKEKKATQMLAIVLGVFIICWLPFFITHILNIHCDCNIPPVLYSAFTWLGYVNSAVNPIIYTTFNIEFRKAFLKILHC

| SMILES | inhibition at 1 µM [1] [%] | inhibition at 1 µM [2] [%] | inhibition at 1 µM [3] [%] | inhibition at 1 µM (5-HT2A receptor) [%] | inhibition at 1 µM (5-HT6 receptor) [%] | inhibition at 1 µM (5-HT7 receptor) [%] | inhibition at 1 µM [4] [%] | D2 [%] [1] [%] | D3 [%] [2] [%] | 5-HT1A [%] [3] [%] | 5-HT2A [%] (5-HT2A receptor) | 5-HT6 [%] (5-HT6 receptor) | 5-HT7 [%] (5-HT7 receptor) | SERT [%] [4] [%] |
| --- | --- | --- | --- | --- | --- | --- | --- | --- | --- | --- | --- | --- | --- | --- |
| Cn1ccc2c(S(=O)(=O)NC3CCN(CCCc4noc5cc(F)ccc45)CC3)cccc21 [Compound 329, N-[1-[3-(6-Fluoro-1,2-benzoxazol-3-yl)propyl]-4-piperidyl]-1-methyl-indole-4-sulphonamide] | 84 | 68 | 49 | 94 | 62 | 97 | 43 | – | – | – | – | – | – | – |
| O=S(=O)(NCC1CCN(CCCc2noc3cc(F)ccc23)C1)c1ccc(Cl)cc1 (centres unmarked) [Compound 242, 4-Chloro-N-[[1-[3-(6-fluoro-1,2-benzoxazol-3-yl)propyl]pyrrolidin-3-yl]methyl]benzenesulphonamide] | 55 | 71 | 11 | 99 | 60 | 83 | 37 | – | – | – | – | – | – | – |
| Cc1cccc(S(=O)(=O)NC2CCN(CCCc3noc4cc(F)ccc34)CC2)c1 [Compound 33, N-[1-[3-(6-Fluoro-1,2-benzoxazol-3-yl)propyl]-4-piperidine]-3-methyl-benzenesulphonamide] | – | – | – | – | – | – | – | 54 | 58 | 22 | 97 | 91 | 100 | −4 |
| Cn1ccc2c(S(=O)(=O)NCC3CCN(CCCc4noc5cc(F)ccc45)C3)cccc21 (centres unmarked) [Compound 259, N-[[1-[3-(6-Fluoro-1,2-benzoxazol-3-yl)propyl]pyrrolidin-3-yl]methyl]-1-methyl-indole-4-sulphonamide] | 84 | 61 | 42 | 100 | 92 | 91 | -5 | – | – | – | – | – | – | – |
| O=S(=O)(NCC1CN(CCCc2noc3cc(F)ccc23)C1)c1ccc(Cl)cc1 [Compound 136, 4-Chloro-N-[[1-[3-(6-fluoro-1,2-benzoxazol-3-yl)propyl]azetidin-3-yl]methyl]benzenesulphonamide] | 62 | 57 | 35 | 82 | 72 | 80 | 9 | – | – | – | – | – | – | – |
| CC(C)(C)c1ccc(S(=O)(=O)NC2CCN(CCCc3noc4cc(F)ccc34)C2)cc1 (centres unmarked) [Compound 14, 4-tert-Butyl-N-[1-[3-(6-fluoro-1,2-benzoxazol-3-yl)propyl]pyrrolidin-3-yl]benzenesulphonamide] | 100 | 90 | 24 | 80 | 82 | 76 | -3 | – | – | – | – | – | – | – |
| O=S(=O)(NCC1CCN(CCCc2noc3cc(F)ccc23)C1)c1ccc2c(c1)OCO2 (centres unmarked) [Compound 235, N-[[1-[3-(6-Fluoro-1,2-benzoxazol-3-yl)propyl]pyrrolidin-3-yl]methyl]-1,3-benzodioxole-5-sulphonamide] | 31 | 41 | 14 | 91 | 62 | 81 | 11 | – | – | – | – | – | – | – |
| CC(C)(C)c1ccc(S(=O)(=O)NC2CCN(CCCc3noc4cc(F)ccc34)CC2)cc1 [Compound 328, 4-tert-Butyl-N-[1-[3-(6-fluoro-1,2-benzoxazol-3-yl)propyl]-4-piperidyl]benzenesulphonamide] | 64 | 40 | 49 | 96 | 94 | 90 | 25 | – | – | – | – | – | – | – |

From US20140135310A1, “SULPHONAMIDE DERIVATIVES OF ALICYCLIC AMINES FOR THE TREATMENT OF CENTRAL NERVOUS SYSTEM DISEASES” (Adamed Sp. z o.o., priority 2011, published 2014)
